# Where “and” joins values, the source holds several entries; their conditions need not be identical. Equal values may be shown once.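 Values below derive from 48-hour exposures of cells grown in 96-well plates, with endpoints linearly interpolated between the two concentrations bracketing the appropriate inhibition level. Here, GI50 denotes the concentration required for 50% inhibition of growth. TGI: concentration producing complete growth inhibition.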
# Assays:
# Test in all cases: NCI anticancer screen, dose series, 48 h
# TK-10 renal = test system: TK-10 renal
# HL-60(TB) leukemia = test system: HL-60(TB) leukemia
# K-562 leukemia = test system: K-562 leukemia
# HS 578T breast = test system: HS 578T breast
# HOP-62 NSCLC = test system: HOP-62 NSCLC
# MDA-MB-231 breast = test system: MDA-MB-231 breast
# OVCAR-3 ovarian = test system: OVCAR-3 ovarian
# PC-3 prostate = test system: PC-3 prostate
# HCT-15 colon = test system: HCT-15 colon
# HCT-116 colon = test system: HCT-116 colon
# M14 melanoma = test system: M14 melanoma
# NCI-H23 lung = test system: NCI-H23 lung
Compound,TGI (TK-10 renal) [µM],TGI (HL-60(TB) leukemia),TGI (K-562 leukemia) [µM],TGI (HS 578T breast) [µM],TGI (HOP-62 NSCLC) [µM],TGI (MDA-MB-231 breast) [µM],TGI (OVCAR-3 ovarian) [µM],TGI (PC-3 prostate) [µM],TGI (HCT-15 colon) [µM],TGI (HCT-116 colon) [µM],TGI (M14 melanoma) [µM],TGI (NCI-H23 lung) [µM],GI50 (HL-60(TB) leukemia) [µM],GI50 (K-562 leukemia) [µM],GI50 (HOP-62 NSCLC) [µM],GI50 (OVCAR-3 ovarian),GI50 (HCT-15 colon),GI50 (HCT-116 colon),GI50 (NCI-H23 lung) [µM]
O=C1OC[C@@H]2Cc3c([nH]c4ccccc34)[C@@H](c3ccc(O)cc3)N12,> 100,> 81.7 µM,> 75.2,> 100,> 84.6,> 83.4,43.8,> 100,> 100,35,54.7,54.6,,,,,,,
CC(C)=CC1C(C(=O)O)C1(C)C (stereo not drawn),,> 750 µM,> 750,,> 750,,> 750,,> 750,> 750,,> 750,,,,,,,
CC1=CC(=O)N(n2c(C)n[nH]c2=O)C1=O,> 100,,> 100,> 100,,> 100,> 100,> 100,> 100,> 100,> 100,> 100,,,,,,,
Cc1cc2cccc(Cl)c2nc1C(=O)c1ccccc1,> 100,,> 100,,> 100,,> 100,,> 100,> 100,> 100,> 100,,,,,,,
CC1CC(C#N)=C2NCCCCN2C1=O (stereo not drawn),> 100,> 100 µM,> 100,> 100,> 100,> 100,> 100,> 100,> 100,,> 100,> 100,,,,,,,
COc1cc([C@@H]2c3cc4c(cc3C[C@H]3COC(=O)[C@@H]32)OCO4)cc(OC)c1OC,,0.00526 µM and 0.0126 µM,21.9,0.00715,40.5,,0.0745,,> 2.32,,,3.52,0.00202,0.00404,0.00577,0.00424 µM and 0.00911 µM,0.00318 µM and 0.0109 µM,0.0026 µM and 0.00848 µM,0.00428
Cc1oc2nc(N(C)C)n3nnnc3c2c1C,> 100,63.6 µM,> 100,> 100,,> 100,,,> 100,> 100,> 100,> 100,,,,,,,
N#CSCc1cccc(Nc2cc(=O)[nH]c(=O)[nH]2)c1,> 100,,> 100,> 100,> 100,> 100,> 100,> 100,> 100,> 100,> 100,> 100,,,,,,,
COC(=O)C1CC(C=[N+](C)C)=C(SC)N1 (stereo not drawn),> 100,,> 100,> 100,> 100,> 100,> 100,> 100,> 100,> 100,> 100,> 100,,,,,,,
Cc1cccc(N(CCC#N)S(=O)(=O)c2ccccc2)c1,> 100,> 100 µM,> 100,> 100,> 100,> 100,> 100,> 100,,> 100,> 100,> 100,,,,,,,
COc1cc2c(cc1OC)C(=O)/C(=C/c1cc(C)c(O)c(C)c1)C2,> 100,> 100 µM,> 100,> 100,> 100,> 100,> 100,> 100,> 100,,> 100,> 100,,,,,,,
CN1CCN(C(=S)N(C)C(=O)c2ccc(Cl)cc2)CC1,> 100,> 100 µM,> 100,> 100,,> 100,> 100,,> 100,,> 100,> 100,,,,,,,
CC(C)/C(Cl)=N\OC(=O)NNc1ccccc1,> 100,,,> 100,> 100,> 94.2,> 100,> 100,> 53.7,> 100,> 56.3,> 100,,,,,,,
CCn1c(=O)c2c3cc(O)ccc3oc2c2ccc(O)cc21,> 100,,> 100,> 100,> 100,> 100,> 100,> 100,> 100,,> 100,> 100,,,,,,,
COC1C=CC23c4cc5c(cc4C(O)OC2CN(C)C3C1)OCO5 (stereo not drawn),,3.17 µM,14.3,,17.9,,5.8,,,10.1,3.15,27.4,,,,,,,
COc1cccc(C2c3cc4c(cc3OC(N3CCCC3)C2C)OCO4)c1OC (stereo not drawn),> 100,,30.5,11.1,26.7,,6.7,27.3,16.9,5.99,23.8,,,,,,,,
C=CCCCC12CCCc3cccc(c31)NC2=O (stereo not drawn),42.4,48.7 µM,78.3,,> 100,,39.1,,,26.4,31.1,36.8,,,,,,,

# — PubChem BioAssay (NCI)
